Assay results reported in ChEMBL document CHEMBL2163239, “Inhibitors of human immunodeficiency virus type 1 (HIV-1) attachment 6. Preclinical and human pharmacokinetic profiling of BMS-663749, a phosphonooxymethyl prodrug of the HIV-1 attachment inhibitor 2-(4-benzoyl-1-piperazinyl)-1-(4,7-dimethoxy-1H-pyrrolo[2,3-c]pyridin-3-yl)-2-oxoethanone …” (J Med Chem, 2012).

How the values were obtained:
[1] = Aqueous solubility of compound at pH 8.9; format: physicochemical
[2] = Aqueous solubility of compound at pH 5.4; format: physicochemical
[3] = Aqueous solubility of compound at pH 1.4 after 18 to 24 hrs by RP-HPLC analysis; format: physicochemical
[4] = Lipophilicity, log D of compound in octanol-PBS mixture at pH 6.5 by HPLC-UV analysis; format: physicochemical
[5] = Clearance in Sprague-Dawley rat at 1.4 mg/kg, iv; format: ADME, organism-based; parameters: dose 1.4 mg/kg, route intravenous; conditions: in vivo
[6] = Volume of distribution at steady state in Sprague-Dawley rat at 1.4 mg/kg, iv; format: ADME, organism-based; parameters: dose 1.4 mg/kg, route intravenous; conditions: in vivo, read-out: Vdss
[7] = Half life in Sprague-Dawley rat at 1.4 mg/kg, iv; format: ADME, organism-based; parameters: dose 1.4 mg/kg, route intravenous; conditions: in vivo
[8] = Mean residence time in Sprague-Dawley rat at 1.4 mg/kg, iv; format: ADME, organism-based; parameters: dose 1.4 mg/kg, route intravenous; conditions: in vivo
Rattus norvegicus [9] = assay: Absolute oral bioavailability in Sprague-Dawley rat assessed as BMS-488043 level at 7.9 mg/kg; format: ADME, organism-based; conditions: in vivo
Rattus norvegicus [10] = assay: Cmax in Sprague-Dawley rat assessed as BMS-488043 level at 7.9 mg/kg, po; format: ADME, organism-based; parameters: dose 7.9 mg/kg, route oral; conditions: in vivo
Rattus norvegicus [11] = assay: Tmax in Sprague-Dawley rat assessed as BMS-488043 level at 7.9 mg/kg, po; format: ADME, organism-based; parameters: dose 7.9 mg/kg, route oral; conditions: in vivo
Rattus norvegicus [12] = assay: AUC (total) in Sprague-Dawley rat assessed as BMS-488043 level at 7.9 mg/kg, po; format: ADME, organism-based, Plasma; parameters: dose 7.9 mg/kg, route oral; conditions: in vivo
Rattus norvegicus [13] = assay: Half life in Sprague-Dawley rat assessed as BMS-488043 level at 7.9 mg/kg, po; format: ADME, organism-based; parameters: dose 7.9 mg/kg, route oral; conditions: in vivo
[14] = Clearance in beagle dog at 1.2 mg/kg, iv; format: ADME, organism-based, Canis lupus familiaris; parameters: dose 1.2 mg/kg, route intravenous; conditions: in vivo
[15] = Volume of distribution at steady state in beagle dog at 1.2 mg/kg, iv; format: ADME, organism-based, Canis lupus familiaris; parameters: dose 1.2 mg/kg, route intravenous; conditions: in vivo, read-out: Vdss
[16] = Half life in beagle dog at 1.2 mg/kg, iv; format: ADME, organism-based, Canis lupus familiaris; parameters: dose 1.2 mg/kg, route intravenous; conditions: in vivo
[17] = Mean residence time in beagle dog at 1.2 mg/kg, iv; format: ADME, organism-based, Canis lupus familiaris; parameters: dose 1.2 mg/kg, route intravenous; conditions: in vivo
Canis familiaris [18] = assay: Absolute oral bioavailability in beagle dog assessed as BMS-488043 level at 6.6 mg/kg; format: ADME, organism-based, Canis lupus familiaris; conditions: in vivo
Canis familiaris [19] = assay: Cmax in beagle dog assessed as BMS-488043 level at 6.6 mg/kg, po; format: ADME, organism-based, Canis lupus familiaris; parameters: dose 6.6 mg/kg, route oral; conditions: in vivo
Canis familiaris [20] = assay: Tmax in beagle dog assessed as BMS-488043 level at 6.6 mg/kg, po; format: ADME, organism-based, Canis lupus familiaris; parameters: dose 6.6 mg/kg, route oral; conditions: in vivo
Canis familiaris [21] = assay: AUC (total) in beagle dog assessed as BMS-488043 level at 6.6 mg/kg, po; format: ADME, organism-based, Canis lupus familiaris, Plasma; parameters: dose 6.6 mg/kg, route oral; conditions: in vivo
Canis familiaris [22] = assay: Half life in beagle dog assessed as BMS-488043 level at 6.6 mg/kg, po; format: ADME, organism-based, Canis lupus familiaris; parameters: dose 6.6 mg/kg, route oral; conditions: in vivo
[23] = Clearance in cynomolgus monkey at 1.3 mg/kg, iv; format: ADME, organism-based, Macaca fascicularis; parameters: dose 1.3 mg/kg, route intravenous; conditions: in vivo
[24] = Volume of distribution at steady state in cynomolgus monkey at 1.3 mg/kg, iv; format: ADME, organism-based, Macaca fascicularis; parameters: dose 1.3 mg/kg, route intravenous; conditions: in vivo, read-out: Vdss
[25] = Half life in cynomolgus monkey at 1.3 mg/kg, iv; format: ADME, organism-based, Macaca fascicularis; parameters: dose 1.3 mg/kg, route intravenous; conditions: in vivo
[26] = Mean residence time in cynomolgus monkey at 1.3 mg/kg, iv; format: ADME, organism-based, Macaca fascicularis; parameters: dose 1.3 mg/kg, route intravenous; conditions: in vivo
Cynomolgus monkey [27] = assay: Absolute oral bioavailability in cynomolgus monkey assessed as BMS-488043 level at 7.1 mg/kg; format: ADME, organism-based, Macaca fascicularis; conditions: in vivo
Cynomolgus monkey [28] = assay: Cmax in cynomolgus monkey assessed as BMS-488043 level at 7.1 mg/kg, po; format: ADME, organism-based, Macaca fascicularis; parameters: dose 7.1 mg/kg, route oral; conditions: in vivo
Cynomolgus monkey [29] = assay: Tmax in cynomolgus monkey assessed as BMS-488043 level at 7.1 mg/kg, po; format: ADME, organism-based, Macaca fascicularis; parameters: dose 7.1 mg/kg, route oral; conditions: in vivo
Cynomolgus monkey [30] = assay: AUC (total) in cynomolgus monkey assessed as BMS-488043 level at 7.1 mg/kg, po; format: ADME, organism-based, Macaca fascicularis, Plasma; parameters: dose 7.1 mg/kg, route oral; conditions: in vivo
Cynomolgus monkey [31] = assay: Half life in cynomolgus monkey assessed as BMS-488043 level at 7.1 mg/kg, po; format: ADME, organism-based, Macaca fascicularis; parameters: dose 7.1 mg/kg, route oral; conditions: in vivo
[32] = Cmax in healthy human at 25 mg, po administered with high fat meal; format: ADME, organism-based; parameters: dose 25 mg, route oral; conditions: in vivo
[33] = Cmax in healthy human at 50 mg, po administered with high fat meal; format: ADME, organism-based; parameters: dose 50 mg, route oral; conditions: in vivo
[34] = Cmax in healthy human at 100 mg, po administered with high fat meal; format: ADME, organism-based; parameters: dose 100 mg, route oral; conditions: in vivo
[35] = Cmax in healthy human at 200 mg, po administered with high fat meal; format: ADME, organism-based; parameters: dose 200 mg, route oral; conditions: in vivo
[36] = Cmax in healthy human at 400 mg, po administered with high fat meal; format: ADME, organism-based; parameters: dose 400 mg, route oral; conditions: in vivo
[37] = Cmax in healthy human at 800 mg, po administered with high fat meal; format: ADME, organism-based; parameters: dose 800 mg, route oral; conditions: in vivo
[38] = Tmax in healthy human at 25 mg, po administered with high fat meal; format: ADME, organism-based; conditions: in vivo
[39] = Tmax in healthy human at 50 mg, po administered with high fat meal; format: ADME, organism-based; conditions: in vivo
[40] = Tmax in healthy human at 100 mg, po administered with high fat meal; format: ADME, organism-based; conditions: in vivo
[41] = Tmax in healthy human at 200 mg, po administered with high fat meal; format: ADME, organism-based; conditions: in vivo
[42] = Tmax in healthy human at 400 mg, po administered with high fat meal; format: ADME, organism-based; conditions: in vivo
[43] = Tmax in healthy human at 800 mg, po administered with high fat meal; format: ADME, organism-based; conditions: in vivo
[44] = Half life in healthy human at 25 mg, po administered with high fat meal; format: ADME, organism-based; conditions: in vivo
[45] = Half life in healthy human at 50 mg, po administered with high fat meal; format: ADME, organism-based; conditions: in vivo
[46] = Half life in healthy human at 100 mg, po administered with high fat meal; format: ADME, organism-based; conditions: in vivo
[47] = Half life in healthy human at 200 mg, po administered with high fat meal; format: ADME, organism-based; conditions: in vivo
[48] = Half life in healthy human at 400 mg, po administered with high fat meal; format: ADME, organism-based; conditions: in vivo
[49] = Half life in healthy human at 800 mg, po administered with high fat meal; format: ADME, organism-based; conditions: in vivo
[50] = AUC (infinity) in healthy human at 25 mg, po administered with high fat meal; format: ADME, organism-based; parameters: dose 25 mg, time infinity, route oral; conditions: plasma
[51] = AUC (infinity) in healthy human at 50 mg, po administered with high fat meal; format: ADME, organism-based; parameters: dose 50 mg, time infinity, route oral; conditions: plasma
[52] = AUC (infinity) in healthy human at 100 mg, po administered with high fat meal; format: ADME, organism-based; parameters: dose 100 mg, route oral, time infinity; conditions: plasma
[53] = AUC (infinity) in healthy human at 200 mg, po administered with high fat meal; format: ADME, organism-based; parameters: dose 200 mg, route oral, time infinity; conditions: plasma
[54] = AUC (infinity) in healthy human at 400 mg, po administered with high fat meal; format: ADME, organism-based; parameters: dose 400 mg, time infinity, route oral; conditions: plasma
[55] = AUC (infinity) in healthy human at 800 mg, po administered with high fat meal; format: ADME, organism-based; parameters: dose 800 mg, time infinity, route oral; conditions: plasma
Plasma [56] = assay: Plasma concentration in healthy human at 25 mg, po administered with high fat meal measured after 12 hrs; format: ADME, organism-based; conditions: in vivo, BLD = below limit of detection
Plasma [57] = assay: Plasma concentration in healthy human at 50 mg, po administered with high fat meal measured after 12 hrs; format: ADME, organism-based; conditions: in vivo, BLD = below limit of detection
[58] = Plasma concentration in healthy human at 100 mg, po administered with high fat meal measured after 12 hrs; format: ADME, organism-based
[59] = Plasma concentration in healthy human at 200 mg, po administered with high fat meal measured after 12 hrs; format: ADME, organism-based
[60] = Plasma concentration in healthy human at 400 mg, po administered with high fat meal measured after 12 hrs; format: ADME, organism-based
[61] = Plasma concentration in healthy human at 800 mg, po administered with high fat meal measured after 12 hrs; format: ADME, organism-based
[62] = Dissociation constant, pKa of compound; format: physicochemical

solubility [1]: > 12000 µg/mL
solubility [2]: > 12000 µg/mL
solubility [3]: 220 µg/mL
logD [4]: < -1
clearance [5]: 14 mL/min/kg
Vd [6]: 0.12 L/kg
half-life [7]: 9.6 min
MRT [8]: 8.4 min
F (Rattus norvegicus [9]): 62%
Cmax (Rattus norvegicus [10]): 3.94 µM
Tmax (Rattus norvegicus [11]): 49.8 min
AUC (Rattus norvegicus [12]): 13.168 µM·h
t1/2 (Rattus norvegicus [13]): 90 min
clearance [14]: 70 mL/min/kg
Vd [15]: 0.3 L/kg
half-life [16]: 9 min
MRT [17]: 4.2 min
F (Canis familiaris [18]): 93%
Cmax (Canis familiaris [19]): 14 µM
Tmax (Canis familiaris [20]): 15 min
AUC (Canis familiaris [21]): 82.844 µM·h
t1/2 (Canis familiaris [22]): 246 min
clearance [23]: 4.4 mL/min/kg
Vd [24]: 0.048 L/kg
half-life [25]: 60 min
MRT [26]: 10.8 min
F (Cynomolgus monkey [27]): 67%
Cmax (Cynomolgus monkey [28]): 16.4 µM
Tmax (Cynomolgus monkey [29]): 49.8 min
AUC (Cynomolgus monkey [30]): 34.183 µM·h
t1/2 (Cynomolgus monkey [31]): 288 min
Cmax [32]: 784 ng/mL
Cmax [33]: 1370 ng/mL
Cmax [34]: 3650 ng/mL
Cmax [35]: 8420 ng/mL
Cmax [36]: 12900 ng/mL
Cmax [37]: 26800 ng/mL
Tmax [38]: 30 min
Tmax [39]: 30 min
Tmax [40]: 30 min
Tmax [41]: 30 min
Tmax [42]: 37.8 min
Tmax [43]: 60 min
half-life [44]: 60 min
half-life [45]: 84 min
half-life [46]: 114 min
half-life [47]: 402 min
half-life [48]: 780 min
half-life [49]: 660 min
AUC(0-inf) [50]: 1160 ng·h/mL
AUC(0-inf) [51]: 2150 ng·h/mL
AUC(0-inf) [52]: 5730 ng·h/mL
AUC(0-inf) [53]: 14200 ng·h/mL
AUC(0-inf) [54]: 26200 ng·h/mL
AUC(0-inf) [55]: 64100 ng·h/mL
Cp (Plasma [56]): BLD
Cp (Plasma [57]): BLD
concentration at 12 h [58]: 12 ng/mL
concentration at 12 h [59]: 33 ng/mL
concentration at 12 h [60]: 59 ng/mL
concentration at 12 h [61]: 150 ng/mL
pKa [62]: 2.2
SMILES: COc1cnc(OC)c2c1c(C(=O)C(=O)N1CCN(C(=O)c3ccccc3)CC1)cn2COP(=O)(O)O.NCCCC[C@H](N)C(=O)O
